Source: PubChem BioAssay AID651867 (The Scripps Research Institute Molecular Screening Center, 2012)

Molecular target: Protein-arginine deiminase type-4 (Homo sapiens) (UniProt Q9UM07)
Assay: PubChem AID 651867
Settings: recombinant PAD4, BAEE citrulline colorimetric, time-dependent inactivation; at 10 µM; stronger effect = higher value

Protein-arginine deiminase type-4 (Homo sapiens), sequence (Q9UM07 whole entry, looked up): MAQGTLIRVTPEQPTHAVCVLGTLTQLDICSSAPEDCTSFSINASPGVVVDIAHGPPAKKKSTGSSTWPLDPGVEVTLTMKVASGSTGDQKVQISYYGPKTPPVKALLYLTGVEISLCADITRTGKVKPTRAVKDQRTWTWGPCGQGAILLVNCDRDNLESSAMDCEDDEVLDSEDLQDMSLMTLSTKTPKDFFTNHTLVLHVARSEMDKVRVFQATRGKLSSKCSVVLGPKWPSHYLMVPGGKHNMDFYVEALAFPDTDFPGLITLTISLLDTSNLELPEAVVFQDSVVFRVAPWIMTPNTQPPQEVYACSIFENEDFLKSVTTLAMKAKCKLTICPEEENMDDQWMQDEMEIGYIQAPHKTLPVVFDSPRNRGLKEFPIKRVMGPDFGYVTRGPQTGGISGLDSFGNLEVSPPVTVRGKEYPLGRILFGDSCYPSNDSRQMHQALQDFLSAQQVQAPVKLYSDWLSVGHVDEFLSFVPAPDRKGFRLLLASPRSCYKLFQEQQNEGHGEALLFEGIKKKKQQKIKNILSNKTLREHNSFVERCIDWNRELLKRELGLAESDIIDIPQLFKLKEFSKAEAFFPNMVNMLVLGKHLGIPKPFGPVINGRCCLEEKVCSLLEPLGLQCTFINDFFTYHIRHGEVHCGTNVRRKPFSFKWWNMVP

## NC1=CC(=O)c2ccc(-c3cccc(C(=O)O)n3)nc2C1=O
  kinact/KI: 88.3 M⁻¹ s⁻¹
